{"source": "patent US4419352A", "about": "“Pyranoquinolinones and analogs thereof” (Fisons Limited, priority 1978, dated 1983)", "key": {"[1]": {"assay": "sub-cutaneous LD50 in rats", "details": "rat, in vivo, sc"}, "[2]": {"tested_on": "rats", "assay": "food choice (revulsion) test in rats", "assay_type": "in vivo, rat"}, "[3]": {"tested_on": "cardiovascular response to isoprenaline", "assay": "cardiovascular response to isoprenaline in the cat", "assay_type": "in vivo"}, "[4]": {"tested_on": "anaesthatised cats", "assay": "blood pressure, heart rate and cardiac output of anaesthetised cats", "assay_type": "in vivo, cat"}, "[5]": {"assay": "sub-cutaneous LD50 in mice", "details": "mouse, in vivo, sc"}, "[6]": {"tested_on": "human volunteer suffering from specific allergic asthma", "assay": "antigen inhalation provocation test (F E V1.0, percent protection)", "assay_type": "in vivo", "details": "F E V1.0, after drug administration", "description": "Clinical evaluation of the compounds was carried out using the antigen inhalation provocation test described below:\nThe human volunteer selected for test purposes suffered from specific allergic asthma. In this subject an asthma attack normally followed the inhalation of an antigen to which they were specifically sensitive. The degree of asthma provoked by this method can be measured by repeated examination of the air way resistance.\nThe antiallergic activity of a compound is estimated from the difference between the maximum percent F E V1.0 reduction following control and test provocations after drug administration conducted under identical experimental conditions.\nThe results of the tests are expressed as percent protection according to the formula: [formula]"}, "[7]": {"tested_on": "cardiovascular response to isoprenaline", "assay": "cardiovascular response to isoprenaline in the rat", "assay_type": "in vivo"}}, "data": [{"compound": "CCCc1c2nc(C(=O)[O-])cc(Cl)c2cc2c(=O)cc(C(=O)[O-])oc12.[Na+].[Na+]", "values": [{"measurement": "LD50", "setting": "[1]", "value": "> 2000", "unit": "mg/kg"}, {"measurement": "revulsion when rats choose between food source containing it and one which does not", "setting": "[2]", "value": "does not produce revulsion"}, {"measurement": "alteration of cardiovascular response to isoprenaline", "setting": "[3]", "value": "did not alter"}, {"measurement": "effect on blood pressure", "setting": "[4]", "value": "without effect"}, {"measurement": "effect on cardiac output", "setting": "[4]", "value": "without effect"}, {"measurement": "effect on heart rate", "setting": "[4]", "value": "without effect"}, {"measurement": "LD50", "setting": "[5]", "value": "> 2000", "unit": "mg/kg"}, {"measurement": "protection against asthma provoked by antigen inhalation", "setting": "[6]", "value": "very considerable protection"}, {"measurement": "alteration of cardiovascular response to isoprenaline", "setting": "[7]", "value": "did not alter"}]}]}
